Results as given in the NIST ThermoML archive (doi:10.1021/je200922s).
± gives the expanded uncertainty stated by the source.

Conditions: 101.33 kPa, Liquid; for viscosity: Capillary tube (Ostwald / Ubbelohde) method; for mass density: Vibrating tube method

| SMILES | viscosity (293.15 K) [mPa·s] | mass density (293.15 K) [kg/m3] | viscosity (298.15 K) [mPa·s] | mass density (298.15 K) [kg/m3] | viscosity (303.15 K) [mPa·s] | mass density (303.15 K) [kg/m3] | viscosity (308.15 K) [mPa·s] | mass density (308.15 K) [kg/m3] | viscosity (313.15 K) [mPa·s] | mass density (313.15 K) [kg/m3] | viscosity (318.15 K) [mPa·s] | mass density (318.15 K) [kg/m3] | viscosity (323.15 K) [mPa·s] | mass density (323.15 K) [kg/m3] |
| --- | --- | --- | --- | --- | --- | --- | --- | --- | --- | --- | --- | --- | --- | --- |
| CCn1cc[n+](C)c1.O=S(=O)([N-]S(=O)(=O)C(F)(F)F)C(F)(F)F | 40.24 ± 1.6 | 1523.28 ± 0.7 | 33.36 ± 1.4 | 1518.25 ± 0.69 | 28.1 ± 1.1 | 1513.23 ± 0.69 | 23.93 ± 0.98 | 1508.2 ± 0.69 | 20.66 ± 0.85 | 1503.16 ± 0.68 | 17.98 ± 0.73 | 1498.19 ± 0.68 | 15.8 ± 0.65 | 1493.33 ± 0.67 |
| CN1CCCC1=O [N-methylpyrrolidone] | 1.811 ± 0.074 | 1032.31 ± 0.26 | 1.667 ± 0.068 | 1027.96 ± 0.25 | 1.543 ± 0.063 | 1023.52 ± 0.25 | 1.437 ± 0.059 | 1019.06 ± 0.25 | 1.343 ± 0.055 | 1014.61 ± 0.24 | 1.258 ± 0.051 | 1010.14 ± 0.24 | 1.184 ± 0.048 | 1005.68 ± 0.24 |
| CCO [ethanol] | 1.189 ± 0.048 | 789.831 ± 0.12 | 1.095 ± 0.044 | 785.535 ± 0.13 | 1.003 ± 0.041 | 781.22 ± 0.13 | 0.914 ± 0.037 | 776.875 ± 0.13 | 0.845 ± 0.034 | 772.48 ± 0.13 | 0.765 ± 0.031 | 768.042 ± 0.14 | 0.704 ± 0.029 | 762.564 ± 0.14 |
